According to patent US20060069132A1, “Azolecarboxamide herbicides” (priority 2004, published 2006):

How the values were obtained:
barnyardgrass [1] = test: Test A pre-/postemergence herbicide test; format: in vivo, Echinochloa crus-galli
Summary of the method: (§1)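 Visual injury scores on a 0–100 scale (100 = complete control) taken about ten days post-treatment in greenhouse against untreated controls; dash means no result. Treatments: preemergence soil spray and postemergence spray to runoff on one- to two-leaf plants 2 to 10 cm tall, surfactant-containing formulation.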

large crabgrass [2] = test: Test A pre-/postemergence herbicide test; format: in vivo, Digitaria sanguinalis
Summary of the method: as §1

giant foxtail [3] = test: Test A pre-/postemergence herbicide test; format: in vivo, Setaria faberi
Summary of the method: as §1

morningglory [4] = test: Test A pre-/postemergence herbicide test; format: in vivo, Ipomoea spp.
Summary of the method: as §1

redroot pigweed = test: Test A pre-/postemergence herbicide test; format: in vivo, Amaranthus retroflexus
Summary of the method: as §1

velvetleaf [5] = test: Test A pre-/postemergence herbicide test; format: in vivo, Abutilon theophrasti
Summary of the method: as §1

barnyardgrass [6] = test: Test B pre-/postemergence herbicide test; format: in vivo, Echinochloa crus-galli; conditions: for Barnyardgrass plant response rating: postemergence
Summary of the method: (§2)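 Response was scored visually 13 to 15 days after treatment against untreated greenhouse controls, 0 meaning no effect and 100 complete control. Formulations (solvent mixture plus surfactant) went onto soil after planting, onto foliage of 1- to 4-leaf plants, and onto 2-leaf plants in a flooded paddy set including rice and barnyardgrass.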

Surinam grass = test: Test B pre-/postemergence herbicide test; format: in vivo, Urochloa decumbens; conditions: for Surinam Grass plant response rating: postemergence
Summary of the method: (§3)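 Seeds were planted and treated preemergence with compounds formulated in a non-phytotoxic solvent mixture containing surfactant, while plants at the 1- to 4-leaf stage (2 to 18 cm) received postemergence sprays. Flooded paddy plants were grown to the 2-leaf stage. After 13 to 15 days in a greenhouse, injury was visually rated 0–100 against untreated controls.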

cocklebur = test: Test B pre-/postemergence herbicide test; format: in vivo, Xanthium strumarium
Summary of the method: as §2

corn = test: Test B pre-/postemergence herbicide test; format: in vivo, Zea mays; conditions: for Corn plant response rating: postemergence
Summary of the method: as §3

large crabgrass [7] = test: Test B pre-/postemergence herbicide test; format: in vivo, Digitaria sanguinalis; conditions: for Crabgrass, Large plant response rating: postemergence
Summary of the method: as §3

giant foxtail [8] = test: Test B pre-/postemergence herbicide test; format: in vivo, Setaria faberi; conditions: for Foxtail, Giant plant response rating: postemergence
Summary of the method: as §3

lambsquarters = test: Test B pre-/postemergence herbicide test; format: in vivo, Chenopodium album; conditions: for Lambsquarters plant response rating: postemergence
Summary of the method: as §3

morningglory [9] = test: Test B pre-/postemergence herbicide test; format: in vivo, Ipomoea coccinea; conditions: for Morningglory plant response rating: postemergence
Summary of the method: as §2

pigweed = test: Test B pre-/postemergence herbicide test; format: in vivo, Amaranthus retroflexus; conditions: for Pigweed plant response rating: postemergence
Summary of the method: as §3

velvetleaf [10] = test: Test B pre-/postemergence herbicide test; format: in vivo, Abutilon theophrasti; conditions: 100 is complete control
Summary of the method: as §3

blackgrass = test: Test B postemergence herbicide test; format: in vivo, Alopecurus myosuroides; conditions: postemergence
Summary of the method: (§4)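 Visual control ratings, 0–100 versus untreated controls, taken after 13 to 15 days in the greenhouse. Blackgrass received a postemergence spray at the 1- to 4-leaf stage (2–18 cm); ducksalad, umbrella sedge and barnyardgrass were flooded-paddy treated at 2 leaves.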

wheat = test: Test B postemergence herbicide test; format: in vivo, Triticum aestivum; set-up: key to Wheat plant response rating: 0 = no effect, 100 = complete control; conditions: postemergence
Summary of the method: (§5)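 Treated at 2-leaf (paddy) or 1–4-leaf, 2–18 cm (postemergence); greenhouse 13–15 d; visual score vs control, 0 none to 100 complete control; dash = not tested.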

wild oat = test: Test B postemergence herbicide test; format: in vivo, Avena fatua; conditions: postemergence
Summary of the method: as §5

rice = test: Test B flooded paddy test; format: in vivo, Oryza sativa; conditions: 1000 g ai/ha, scale 0 to 100 (0 no effect, 100 complete control)
Summary of the method: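 Visual ratings, 0 (no effect) to 100 (complete control), made versus controls after 13–15 d greenhouse. Paddy plants treated at 2-leaf stage; postemergence plants at 1- to 4-leaf stage, 2–18 cm tall.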

[11] = tested on: small flower umbrella sedge; test: Test B flooded paddy test; format: in vivo, Cyperus difformis; conditions: 1000 g ai/ha, scale 0 to 100 (0 no effect, 100 complete control)
Summary of the method: as §4

ducksalad = test: Test B flooded paddy test; format: in vivo, Heteranthera limosa; conditions: 1000 g ai/ha, scale 0 to 100 (0 no effect, 100 complete control)
Summary of the method: as §4

barnyardgrass [12] = test: Test B flooded paddy test; format: in vivo, Echinochloa crus-galli; conditions: 1000 g ai/ha, scale 0 to 100 (0 no effect, 100 complete control)
Summary of the method: as §4

[13] = Postemergence, 500 g ai/ha, 0 to 100 scale, 0 no effect, 100 complete control
[14] = Postemergence, 2000 g ai/ha, 0 to 100 scale, 0 no effect, 100 complete control
[15] = Preemergence, 2000 g ai/ha, visual rating, 0 to 100 scale (0 no effect, 100 complete control)
[16] = preemergence, 500 g ai/ha, visual injury, 0 to 100 scale (0 no effect, 100 complete control)
[17] = 125 g ai/ha, 0 is no effect, 100 is complete control, preemergence
[18] = 125 g ai/ha, visual rating, scale 0 (no effect) to 100 (complete control)
[19] = 500 g ai/ha, visual rating, 0 = no effect, 100 = complete control, preemergence
[20] = 500 g ai/ha, scale 0 to 100, 0 is no effect, 100 is complete control

Compound: CCNC(=O)c1cccc(NC(=O)c2nn(C3CCCC3)nc2CC)c1 [Compound 356]
- Barnyardgrass plant response rating (barnyardgrass [1]; [13]): 25
- Plant response rating, Barnyardgrass (barnyardgrass [1]; [14]): 40
- Barnyardgrass plant response rating (barnyardgrass [1]; [15]): 45
- Barnyardgrass plant response rating (barnyardgrass [1]; [16]): 5
- Crabgrass, Large plant response rating (large crabgrass [2]; [13]): 10
- Plant response rating, Crabgrass, Large (large crabgrass [2]; [14]): 15
- Crabgrass, Large plant response rating (large crabgrass [2]; [15]): 20
- Crabgrass, Large plant response rating (large crabgrass [2]; [16]): 10
- Foxtail, Giant plant response rating (giant foxtail [3]; [13]): 10
- Plant response rating, Foxtail, Giant (giant foxtail [3]; [14]): 10
- Foxtail, Giant plant response rating (giant foxtail [3]; [15]): 45
- Foxtail, Giant plant response rating (giant foxtail [3]; [16]): 20
- Morningglory plant response rating (morningglory [4]; [13]): 10
- Plant response rating, Morningglory (morningglory [4]; [14]): 20
- Morningglory plant response rating (morningglory [4]; [15]): 15
- Morningglory plant response rating (morningglory [4]; [16]): 5
- Pigweed plant response rating (redroot pigweed; [13]): 65
- Plant response rating, Pigweed (redroot pigweed; [14]): 70
- Pigweed plant response rating (redroot pigweed; [15]): 80
- Pigweed plant response rating (redroot pigweed; [16]): 25
- Velvetleaf plant response rating (velvetleaf [5]; [13]): 10
- Plant response rating, Velvetleaf (velvetleaf [5]; [14]): 10
- Velvetleaf plant response rating (velvetleaf [5]; [15]): 20
- Velvetleaf plant response rating (velvetleaf [5]; [16]): 0
- Plant response rating (0 to 100 scale), Barnyardgrass (barnyardgrass [6]; [17]): 60
- Barnyardgrass plant response rating (barnyardgrass [6]; [18]): 0
- Plant response rating, Barnyardgrass (barnyardgrass [6]; [19]): 80
- Barnyardgrass plant response rating (barnyardgrass [6]; [20]): 0
- Plant response rating (0 to 100 scale), Surinam Grass (Surinam grass; [17]): 10
- Surinam Grass plant response rating (Surinam grass; [18]): 10
- Plant response rating, Surinam Grass (Surinam grass; [19]): 60
- Surinam Grass plant response rating (Surinam grass; [20]): 20
- Plant response rating (0 to 100 scale), Cocklebur (cocklebur; [17]): 0
- Plant response rating, Cocklebur (cocklebur; [19]): 20
- Cocklebur plant response rating (cocklebur; postemergence, 500 g ai/ha, scale 0 to 100, 0 is no effect, 100 is complete control): 0
- Plant response rating (0 to 100 scale), Corn (corn; [17]): 10
- Corn plant response rating (corn; [18]): 0
- Plant response rating, Corn (corn; [19]): 50
- Corn plant response rating (corn; [20]): 0
- Plant response rating (0 to 100 scale), Crabgrass, Large (large crabgrass [7]; [17]): 40
- Crabgrass, Large plant response rating (large crabgrass [7]; [18]): 10
- Plant response rating, Crabgrass, Large (large crabgrass [7]; [19]): 90
- Crabgrass, Large plant response rating (large crabgrass [7]; [20]): 30
- Plant response rating (0 to 100 scale), Foxtail, Giant (giant foxtail [8]; [17]): 10
- Foxtail, Giant plant response rating (giant foxtail [8]; [18]): 30
- Plant response rating, Foxtail, Giant (giant foxtail [8]; [19]): 80
- Foxtail, Giant plant response rating (giant foxtail [8]; [20]): 30
- Plant response rating (0 to 100 scale), Lambsquarters (lambsquarters; [17]): 40
- Lambsquarters plant response rating (lambsquarters; [18]): 10
- Plant response rating, Lambsquarters (lambsquarters; [19]): 100
- Lambsquarters plant response rating (lambsquarters; [20]): 50
- Plant response rating (0 to 100 scale), Morningglory (morningglory [9]; [17]): 0
- Morningglory plant response rating (morningglory [9]; [18]): 0
- Plant response rating, Morningglory (morningglory [9]; [19]): 10
- Morningglory plant response rating (morningglory [9]; [20]): 10
- Plant response rating (0 to 100 scale), Pigweed (pigweed; [17]): 70
- Pigweed plant response rating (pigweed; [18]): 30
- Plant response rating, Pigweed (pigweed; [19]): 100
- Pigweed plant response rating (pigweed; [20]): 70
- Plant response rating (0 to 100 scale), Velvetleaf (velvetleaf [10]; 125 g ai/ha, 0 is no effect, preemergence): 0
- Velvetleaf plant response rating (velvetleaf [10]; postemergence, 500 g ai/ha, scale 0 to 100, 0 is no effect): 0
- Blackgrass plant response rating (blackgrass; [18]): 0
- Blackgrass plant response rating (blackgrass; [20]): 10
- Wheat plant response rating (wheat; [18]): 0
- Wheat plant response rating (wheat; [20]): 10
- Oat, Wild plant response rating (wild oat; [18]): 0
- Oat, Wild plant response rating (wild oat; [20]): 20
- Rice plant response rating (rice): 50
- Sedge, Umbrella plant response rating [11]: 70
- Ducksalad plant response rating (ducksalad): 60
- Barnyardgrass plant response rating (barnyardgrass [12]): 50
